Laboratory results from US20030134774A1, “Methods for inhibiting cardiac disorders” (priority 2001, published 2003).

What was measured:
cardiomyocytes [1] = test: Tolerance of cardiomyocytes to prolonged incubation with inhibitor; details: prolonged (24 hr) incubations
cardiomyocytes [2] = test: TUNEL assay of apoptosis in cardiomyocyte cultures; assay type: cell-based, rat; details: 500 μM, 24 hr
Protocol: rPMT increases H2O2-induced apoptosis in cardiomyocyte cultures. Cells were treated without or with rPMT (400 ng/ml) for 24 hr followed by H202 (500 μM) for 24 hr. The percentage of cells undergoing apoptosis was measured by TUNEL assay as described in Methods below. Data are from a single experiment and are representative of results obtained on 3 separate culture preparations.
TUNEL staining was performed for detection of apoptotic cells according to manufacturer's instructions (Boehringer). Approximately 500 cardiomyocytes were imaged by fluorescence microscopy and the number of cells that scored TUNEL-positive is presented as a percentage of total.

| SMILES | tolerance of cardiomyocytes to the inhibitor (cardiomyocytes [1]) | apoptosis (TUNEL) (cardiomyocytes [2]) |
| --- | --- | --- |
| CC(=O)c1c(O)c(C)c(O)c(Cc2c(O)c3c(c(C(=O)/C=C/c4ccccc4)c2O)OC(C)(C)C=C3)c1O [rottlerin] | do not tolerate |  |
| OO [H202, reference compound] |  | induces apoptosis |
